± gives the standard deviation of the averaged measurements.
Experiments:
[1] = compound: O=C(NOCC1CC1)c1ccc(F)c(F)c1Nc1ccc(I)cc1Cl; assay: surviving fraction relative to DMSO-only wells; higher = less growth inhibition; conditions: exposure time: 5 days
How it was run: (§1)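 After seeding at 250–500 cells per well in 384-well plates and a 24-hour wait, log-phase tumour cell lines were exposed without interruption for five days to inhibitors at 0.5, 1, 5, 10, 50, 100, 500 and 1000 nM. CellTiter-Glo luminescence was recorded after 10 minutes at room temperature. Viability is reported as surviving fraction, the luminescence normalised to the median of DMSO-only wells.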

[2] = compound: Cc1nc(Nc2n[nH]c3c2CN(C(=O)N[C@H](CN(C)C)c2ccccc2)C3(C)C)c2sccc2n1; assay: as above; conditions: exposure time: 5 days
How it was run: as §1

Test System | surviving fraction ([1]; 0.5 nM) | surviving fraction ([1]; 1 nM) | surviving fraction ([1]; 5 nM) | surviving fraction ([1]; 10 nM) | surviving fraction ([1]; 50 nM) | surviving fraction ([1]; 100 nM) | surviving fraction ([1]; 500 nM) | surviving fraction ([1]; 1000 nM) | surviving fraction ([2]; 0.5 nM) | surviving fraction ([2]; 1 nM) | surviving fraction ([2]; 5 nM) | surviving fraction ([2]; 10 nM) | surviving fraction ([2]; 50 nM) | surviving fraction ([2]; 100 nM) | surviving fraction ([2]; 500 nM) | surviving fraction ([2]; 1000 nM)
HCC1806 BREAST | 1.04 ± 0.026 | 1.01 ± 0.098 | 1.09 ± 0.16 | 1.12 ± 0.079 | 1.1 ± 0.058 | 1.17 ± 0.048 | 0.761 ± 0.094 | 0.671 ± 0.022 | 0.842 ± 0.06 | 0.521 ± 0.022 | 0.0733 ± 0.0085 | 0.0613 ± 0.0081 | 0.0497 ± 0.0047 | 0.0377 ± 0.0055 | 0.024 ± 0.001 | 0.0237 ± 0.00058
HCC1954 BREAST | 0.986 ± 0.081 | 1.13 ± 0.023 | 1.12 ± 0.027 | 1.05 ± 0.066 | 0.8718 ± 0.0032 | 0.805 ± 0.081 | 0.617 ± 0.041 | 0.566 ± 0.067 | 1 ± 0.05 | 0.88 ± 0.12 | 0.43 ± 0.044 | 0.466 ± 0.0085 | 0.487 ± 0.023 | 0.493 ± 0.018 | 0.428 ± 0.028 | 0.253 ± 0.035
HCT15 LARGE INTESTINE | 0.526 ± 0.042 | 0.912 ± 0.023 | 0.849 ± 0.05 | 0.936 ± 0.066 | 0.608 ± 0.037 | 0.914 ± 0.039 | 0.784 ± 0.0076 | 0.823 ± 0.05 | 0.998 ± 0.043 | 1.019 ± 0.009 | 1.04 ± 0.03 | 1.04 ± 0.011 | 0.869 ± 0.061 | 1.02 ± 0.036 | 0.172 ± 0.013 | 0.428 ± 0.023
HELA CERVIX | 0.961 ± 0.057 | 1.01 ± 0.09 | 0.97 ± 0.07 | 0.964 ± 0.08 | 1.02 ± 0.012 | 1.08 ± 0.055 | 1.09 ± 0.077 | 1.12 ± 0.025 | 1.1 ± 0.061 | 1.11 ± 0.056 | 0.936 ± 0.026 | 0.741 ± 0.02 | 0.4922 ± 0.0018 | 0.478 ± 0.0081 | 0.406 ± 0.016 | 0.341 ± 0.026
HMLE3 BREAST | 0.845 ± 0.061 | 0.91 ± 0.028 | 0.922 ± 0.053 | 0.862 ± 0.017 | 0.733 ± 0.032 | 0.745 ± 0.048 | 0.525 ± 0.03 | 0.612 ± 0.001 | 1.01 ± 0.11 | 0.883 ± 0.026 | 0.295 ± 0.02 | 0.144 ± 0.0049 | 0.0967 ± 0.012 | 0.092 ± 0.0036 | 0.066 ± 0.0082 | 0.055 ± 0.002
HMT3552 BREAST | 1.11 | 1.12 | 1.01 | 1.08 | 1.02 | 0.941 | 0.92 | 0.843 | 0.986 | 0.77 | 0.376 | 0.287 | 0.219 | 0.212 | 0.17 | 0.136
HOS BONE | 0.996 ± 0.015 | 1.01 ± 0.025 | 0.997 ± 0.014 | 1.01 ± 0.033 | 0.9843 ± 0.006 | 0.998 ± 0.018 | 0.951 ± 0.02 | 0.9593 ± 0.0051 | 1.02 ± 0.018 | 0.957 ± 0.014 | 0.583 ± 0.02 | 0.409 ± 0.03 | 0.234 ± 0.015 | 0.233 ± 0.0055 | 0.194 ± 0.0038 | 0.112 ± 0.0079
HOSMNG BONE | 1 ± 0.092 | 0.992 ± 0.059 | 0.999 ± 0.082 | 1.01 ± 0.027 | 0.992 ± 0.12 | 1.02 ± 0.084 | 0.991 ± 0.1 | 1.06 ± 0.03 | 0.981 ± 0.063 | 0.995 ± 0.065 | 1.02 ± 0.11 | 0.944 ± 0.025 | 0.821 ± 0.042 | 0.622 ± 0.029 | 0.399 ± 0.024 | 0.253 ± 0.018
HS57T BREAST | 0.909 ± 0.02 | 0.945 ± 0.022 | 0.933 ± 0.056 | 0.965 ± 0.033 | 0.824 ± 0.025 | 0.815 ± 0.013 | 0.676 ± 0.021 | 0.686 ± 0.019 | 0.895 ± 0.062 | 0.685 ± 0.022 | 0.366 ± 0.02 | 0.305 ± 0.019 | 0.287 ± 0.018 | 0.255 ± 0.0075 | 0.151 ± 0.02 | 0.0643 ± 0.0085
HS578T BREAST | 0.899 ± 0.029 | 0.913 ± 0.041 | 0.917 ± 0.076 | 1.09 ± 0.08 | 1.05 ± 0.08 | 0.892 ± 0.042 | 0.944 ± 0.041 | 0.936 ± 0.041 | 0.767 ± 0.024 | 0.713 ± 0.019 | 0.506 ± 0.064 | 0.504 ± 0.05 | 0.374 ± 0.056 | 0.37 ± 0.049 | 0.186 ± 0.029 | 0.095 ± 0.013
HSSYII SYNOVIAL | 0.526 ± 0.017 | 0.847 ± 0.035 | 0.872 ± 0.041 | 0.928 ± 0.074 | 0.663 ± 0.059 | 0.807 ± 0.058 | 0.82 ± 0.038 | 0.821 ± 0.022 | 0.679 ± 0.029 | 0.789 ± 0.13 | 0.271 ± 0.021 | 0.281 ± 0.0072 | 0.216 ± 0.007 | 0.215 ± 0.018 | 0.0975 ± 0.0058 | 0.138 ± 0.0053
HT1080 SOFT TISSUE | 1.009 ± 0.0071 | 1.016 ± 0.01 | 1.01 ± 0.028 | 1.03 ± 0.029 | 1.08 ± 0.025 | 1.04 ± 0.039 | 0.741 ± 0.0079 | 0.617 ± 0.036 | 0.98 ± 0.024 | 0.859 ± 0.018 | 0.295 ± 0.0038 | 0.249 ± 0.013 | 0.194 ± 0.0046 | 0.171 ± 0.0076 | 0.111 ± 0.015 | 0.087 ± 0.0078
HU09 BONE | 0.968 ± 0.024 | 1 ± 0.15 | 1.06 ± 0.073 | 1.06 ± 0.11 | 0.995 ± 0.1 | 1.03 ± 0.12 | 0.894 ± 0.044 | 0.905 ± 0.066 | 0.811 ± 0.053 | 0.67 ± 0.084 | 0.473 ± 0.049 | 0.425 ± 0.081 | 0.381 ± 0.046 | 0.339 ± 0.028 | 0.174 ± 0.023 | 0.111 ± 0.007
JIMT1 BREAST | 0.957 ± 0.056 | 0.967 ± 0.039 | 0.997 ± 0.032 | 0.997 ± 0.02 | 0.955 ± 0.013 | 0.956 ± 0.017 | 0.8092 ± 0.0039 | 0.7653 ± 0.0068 | 0.993 ± 0.035 | 0.985 ± 0.03 | 0.888 ± 0.029 | 0.839 ± 0.047 | 0.559 ± 0.041 | 0.51 ± 0.041 | 0.398 ± 0.029 | 0.323 ± 0.0049
JURKAT HAEMATOPOIETIC AND LYMPHOID TISSUE | 1.03 ± 0.012 | 1.032 ± 0.0095 | 1.04 ± 0.016 | 1.02 ± 0.044 | 0.98 ± 0.011 | 1 ± 0.014 | 1.03 ± 0.013 | 0.994 ± 0.033 | 1.01 ± 0.032 | 0.939 ± 0.02 | 0.169 ± 0.0038 | 0.095 ± 0.0044 | 0.0877 ± 0.004 | 0.086 ± 0.001 | 0.06 ± 0.001 | 0.051
KPD BONE | 1.17 ± 0.41 | 0.967 ± 0.047 | 1.032 ± 0.007 | 0.977 ± 0.037 | 0.986 ± 0.065 | 0.96 ± 0.032 | 0.968 ± 0.041 | 0.922 ± 0.055 | 0.632 ± 0.036 | 0.569 ± 0.027 | 0.425 ± 0.042 | 0.344 ± 0.011 | 0.259 ± 0.021 | 0.224 ± 0.027 | 0.0937 ± 0.01 | 0.058 ± 0.0053
LM7 BONE | 0.983 ± 0.049 | 1.01 ± 0.041 | 1.1 ± 0.12 | 1 ± 0.024 | 1.02 ± 0.073 | 0.943 ± 0.1 | 0.821 ± 0.011 | 0.853 ± 0.089 | 0.842 ± 0.039 | 0.674 ± 0.036 | 0.51 ± 0.0046 | 0.457 ± 0.046 | 0.386 ± 0.033 | 0.327 ± 0.036 | 0.115 ± 0.006 | 0.0547 ± 0.0084
MCF7 BREAST | 0.843 ± 0.041 | 0.87 ± 0.035 | 0.848 ± 0.02 | 0.849 ± 0.028 | 0.874 ± 0.029 | 0.867 ± 0.045 | 0.849 ± 0.022 | 0.841 ± 0.06 | 0.89 ± 0.077 | 0.857 ± 0.024 | 0.621 ± 0.036 | 0.746 ± 0.035 | 0.547 ± 0.01 | 0.546 ± 0.022 | 0.395 ± 0.019 | 0.486 ± 0.0057
MDAMB134 BREAST | 0.871 ± 0.27 | 1.03 ± 0.16 | 0.933 ± 0.067 | 0.869 ± 0.075 | 0.809 ± 0.097 | 0.732 ± 0.11 | 0.556 ± 0.044 | 0.711 ± 0.15 | 0.805 ± 0.016 | 0.954 ± 0.014 | 0.909 ± 0.029 | 0.924 ± 0.02 | 1.04 ± 0.044 | 1.02 ± 0.017 | 1.13 ± 0.035 | 0.961 ± 0.2
MDAMB157 BREAST | 0.877 ± 0.043 | 0.86 ± 0.12 | 0.929 ± 0.1 | 0.928 ± 0.069 | 0.85 ± 0.02 | 0.866 ± 0.037 | 0.787 ± 0.035 | 0.664 ± 0.013 | 0.841 ± 0.14 | 0.792 ± 0.055 | 0.623 ± 0.11 | 0.545 ± 0.019 | 0.405 ± 0.055 | 0.29 ± 0.048 | 0.159 ± 0.013 | 0.119 ± 0.021
MDAMB231 BREAST | 0.963 ± 0.011 | 0.994 ± 0.035 | 1 ± 0.024 | 1.02 ± 0.032 | 0.969 ± 0.024 | 0.912 ± 0.022 | 0.65 ± 0.039 | 0.52 ± 0.02 | 0.964 ± 0.023 | 0.923 ± 0.029 | 0.667 ± 0.012 | 0.591 ± 0.019 | 0.474 ± 0.0092 | 0.433 ± 0.022 | 0.205 ± 0.0056 | 0.0829 ± 0.0099

Reference: the supplement of paper PMC6045584
